Test results taken from ChEMBL document CHEMBL1909046, “DrugMatrix in vitro pharmacology data”.
pIC50: −log10 of the molar value.

Experiments:
[1] = target: Receptor tyrosine-protein kinase erbB-2 (Homo sapiens, UniProt P04626); test: biochemical; assay type: cell-based, Insect cells; conditions: for IC50: insect cells;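 as to all read-outs here: inhibition of HER2 kinase enzyme activity, measured with Poly(Glu:Tyr) as the phosphorylation substrate; in other assays of this panel Not Active means under 50% inhibition at 10 µM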
Chain of Receptor tyrosine-protein kinase erbB-2 (P04626 whole entry): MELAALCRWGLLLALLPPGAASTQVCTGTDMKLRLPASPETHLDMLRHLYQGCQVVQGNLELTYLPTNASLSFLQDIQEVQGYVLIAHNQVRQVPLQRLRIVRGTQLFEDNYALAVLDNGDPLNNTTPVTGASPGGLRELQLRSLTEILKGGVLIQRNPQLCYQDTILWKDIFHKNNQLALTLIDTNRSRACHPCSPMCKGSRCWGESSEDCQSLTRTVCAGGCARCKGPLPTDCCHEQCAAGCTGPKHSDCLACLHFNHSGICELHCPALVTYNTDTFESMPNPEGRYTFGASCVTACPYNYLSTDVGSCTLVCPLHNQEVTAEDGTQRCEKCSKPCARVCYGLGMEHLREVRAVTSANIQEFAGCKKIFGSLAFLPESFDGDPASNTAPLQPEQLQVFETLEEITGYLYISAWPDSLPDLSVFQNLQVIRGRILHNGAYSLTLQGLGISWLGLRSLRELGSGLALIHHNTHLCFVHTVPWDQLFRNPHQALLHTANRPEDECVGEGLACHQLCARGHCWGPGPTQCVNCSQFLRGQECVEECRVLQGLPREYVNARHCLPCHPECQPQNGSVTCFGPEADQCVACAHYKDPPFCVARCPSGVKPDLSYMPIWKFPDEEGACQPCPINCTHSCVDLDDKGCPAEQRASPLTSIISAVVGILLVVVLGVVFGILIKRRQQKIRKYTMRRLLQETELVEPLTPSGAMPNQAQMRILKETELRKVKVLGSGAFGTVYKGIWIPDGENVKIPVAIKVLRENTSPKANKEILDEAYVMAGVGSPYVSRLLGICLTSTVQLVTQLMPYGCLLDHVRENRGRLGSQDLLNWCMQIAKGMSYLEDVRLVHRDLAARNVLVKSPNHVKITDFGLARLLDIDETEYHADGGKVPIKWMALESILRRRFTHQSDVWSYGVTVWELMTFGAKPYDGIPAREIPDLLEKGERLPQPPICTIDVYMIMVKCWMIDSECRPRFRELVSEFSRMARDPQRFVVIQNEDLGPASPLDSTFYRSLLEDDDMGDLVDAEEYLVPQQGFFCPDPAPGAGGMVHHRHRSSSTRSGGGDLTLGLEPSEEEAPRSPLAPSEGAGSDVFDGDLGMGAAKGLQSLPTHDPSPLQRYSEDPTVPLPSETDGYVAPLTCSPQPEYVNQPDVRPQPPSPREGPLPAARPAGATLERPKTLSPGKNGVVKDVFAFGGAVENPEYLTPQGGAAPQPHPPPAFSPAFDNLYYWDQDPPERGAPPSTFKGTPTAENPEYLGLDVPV

[2] = target: cGMP-specific 3',5'-cyclic phosphodiesterase (Homo sapiens, UniProt O76074); test: DRUGMATRIX: Phosphodiesterase PDE5 enzyme inhibition (substrate: [3H]cGMP + cGMP); assay type: tissue-based; conditions: platelet; Not Active = under 50% inhibition at 10 µM
[3] = target: Sigma non-opioid intracellular receptor 1 (Homo sapiens, UniProt Q99720); test: DRUGMATRIX: Sigma1 radioligand binding (ligand: [3H] Haloperidol); assay type: cell membranes, Jurkat, Membrane; conditions: jurkat; Not Active = under 50% inhibition at 10 µM
Chain of Sigma non-opioid intracellular receptor 1 (Q99720 whole entry): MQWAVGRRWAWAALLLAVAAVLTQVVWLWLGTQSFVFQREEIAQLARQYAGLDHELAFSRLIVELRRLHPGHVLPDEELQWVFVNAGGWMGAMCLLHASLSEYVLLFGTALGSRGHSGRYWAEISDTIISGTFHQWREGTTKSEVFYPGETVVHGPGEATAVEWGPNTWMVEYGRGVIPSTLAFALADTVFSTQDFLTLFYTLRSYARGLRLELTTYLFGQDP

[4] = target: T1, C-X-C chemokine receptor type 2 (Homo sapiens, UniProt P25025); assay type: cell membranes, Membrane; conditions: cho-k1; also: in other assays of this panel Not Active means under 50% inhibition at 10 µM
T1 sequence (P25025 whole entry): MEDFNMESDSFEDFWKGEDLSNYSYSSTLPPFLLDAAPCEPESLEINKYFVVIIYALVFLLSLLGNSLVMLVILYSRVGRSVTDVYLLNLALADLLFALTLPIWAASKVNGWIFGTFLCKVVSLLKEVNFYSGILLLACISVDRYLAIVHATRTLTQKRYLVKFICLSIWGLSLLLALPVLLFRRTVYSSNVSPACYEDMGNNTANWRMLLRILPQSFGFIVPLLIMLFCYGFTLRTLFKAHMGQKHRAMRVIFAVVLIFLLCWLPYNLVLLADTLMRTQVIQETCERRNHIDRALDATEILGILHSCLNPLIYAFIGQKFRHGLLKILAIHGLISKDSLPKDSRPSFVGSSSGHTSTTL

Adenosine receptor A2a = Adenosine receptor A2a (Homo sapiens, UniProt P29274); test: DRUGMATRIX: Adenosine A2A radioligand binding (ligand: […]); assay type: cell membranes, HEK293, Membrane; conditions: hek293; Not Active = under 50% inhibition at 10 µM
Chain of Adenosine receptor A2a (P29274 whole entry): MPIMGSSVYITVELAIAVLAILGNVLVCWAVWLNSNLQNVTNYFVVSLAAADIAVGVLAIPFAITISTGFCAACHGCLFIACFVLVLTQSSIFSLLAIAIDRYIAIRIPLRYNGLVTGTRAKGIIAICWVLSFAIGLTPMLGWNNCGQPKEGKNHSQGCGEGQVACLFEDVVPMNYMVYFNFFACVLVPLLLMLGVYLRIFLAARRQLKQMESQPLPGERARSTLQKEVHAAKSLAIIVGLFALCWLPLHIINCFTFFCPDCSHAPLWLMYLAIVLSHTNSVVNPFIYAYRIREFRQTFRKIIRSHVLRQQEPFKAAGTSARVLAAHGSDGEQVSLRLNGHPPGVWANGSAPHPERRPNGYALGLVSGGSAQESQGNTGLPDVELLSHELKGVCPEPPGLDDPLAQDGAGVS

Carbonic anhydrase 2 = Carbonic anhydrase 2 (Homo sapiens, UniProt P00918); test: DRUGMATRIX: Carbonic Anhydrase II enzyme inhibition (substrate: 4-Nitrophenyl acetate (4-NPA)); assay type: tissue-based, Erythrocyte; conditions: erythrocyte; Not Active = under 50% inhibition at 10 µM
[5] = target: T2, Cysteinyl leukotriene receptor 1 (Homo sapiens, UniProt Q9Y271); assay type: cell membranes, CHO-K1, Membrane; conditions: cho-k1; also: in other assays of this panel Not Active means under 50% inhibition at 10 µM
T2 sequence (Q9Y271 whole entry): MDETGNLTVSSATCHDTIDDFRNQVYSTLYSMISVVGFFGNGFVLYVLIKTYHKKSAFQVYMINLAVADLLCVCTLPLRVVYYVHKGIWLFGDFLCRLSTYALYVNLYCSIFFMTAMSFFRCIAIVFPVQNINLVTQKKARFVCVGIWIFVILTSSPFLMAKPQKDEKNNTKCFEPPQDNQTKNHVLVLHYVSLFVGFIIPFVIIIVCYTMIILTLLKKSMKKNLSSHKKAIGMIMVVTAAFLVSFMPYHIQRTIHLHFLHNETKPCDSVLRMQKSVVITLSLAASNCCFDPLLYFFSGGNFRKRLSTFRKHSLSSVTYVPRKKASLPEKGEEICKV

SMILES | IC50 [1] | IC50 [2] | IC50 [3] | IC50 [4] | IC50 (Adenosine receptor A2a) | IC50 (Carbonic anhydrase 2) | IC50 [5] | Ki (Carbonic anhydrase 2) | pIC50 ([1]; read-out: IC50)
C[C@@H]1C[C@@H]([C@H](O)CC2CC(=O)NC(=O)C2)C(=O)[C@@H](C)C1 [CYCLOHEXIMIDE] | Not Active | Not Active | Not Active | Not Active | Not Active | Not Active | Not Active | – | –
C/C=C/C[C@@H](C)[C@@H](O)[C@H]1C(=O)N[C@@H](CC)C(=O)N(C)CC(=O)N(C)[C@@H](CC(C)C)C(=O)N[C@@H](C(C)C)C(=O)N(C)[C@@H](CC(C)C)C(=O)N[C@@H](C)C(=O)N[C@H](C)C(=O)N(C)[C@@H](CC(C)C)C(=O)N(C)[C@@H](CC(C)C)C(=O)N(C)[C@@H](C(C)C)C(=O)N1C [CYCLOSPORINE] | Not Active | Not Active | Not Active | Not Active | Not Active | Not Active | Not Active | – | –
CN(C)/N=N/c1[nH]cnc1C(N)=O [DACARBAZINE] | Not Active | Not Active | Not Active | Not Active | Not Active | Not Active | Not Active | – | –
COc1ccc2c(c1)[C@]13CCCC[C@@H]1[C@H](C2)N(C)CC3 [DEXTROMETHORPHAN] | Not Active | Not Active | Not Active | Not Active | Not Active | Not Active | Not Active | – | –
CC(=O)Nc1c(I)c(NC(C)=O)c(I)c(C(=O)O)c1I [DIATRIZOIC ACID] | Not Active | Not Active | Not Active | Not Active | Not Active | Not Active | Not Active | – | –
COP(=O)(OC)OC=C(Cl)Cl [DICHLORVOS] | Not Active | Not Active | Not Active | Not Active | Not Active | Not Active | Not Active | – | –
O=C(O)Cc1ccccc1Nc1c(Cl)cccc1Cl [DICLOFENAC] | Not Active | Not Active | Not Active | Not Active | Not Active | Not Active | Not Active | – | –
C[C@H]1O[C@@H](O[C@H]2[C@@H](O)C[C@H](O[C@H]3[C@@H](O)C[C@H](O[C@H]4CC[C@@]5(C)[C@H](CC[C@@H]6[C@@H]5CC[C@]5(C)[C@@H](C7=CC(=O)OC7)CC[C@]65O)C4)O[C@@H]3C)O[C@@H]2C)C[C@H](O)[C@@H]1O [DIGITOXIN] | Not Active | Not Active | Not Active | Not Active | Not Active | Not Active | Not Active | – | –
CCN1CC(CCN2CCOCC2)C(c2ccccc2)(c2ccccc2)C1=O (stereo unspecified) [DOXAPRAM] | Not Active | Not Active | Not Active | Not Active | Not Active | – | Not Active | Not Active | –
Cn1c(=O)c2c(ncn2CC2OCCO2)n(C)c1=O [DOXOFYLLINE] | Not Active | Not Active | Not Active | Not Active | Not Active | Not Active | Not Active | – | –
COc1cccc2c1C(=O)c1c(O)c3c(c(O)c1C2=O)C[C@@](O)(C(=O)CO)C[C@@H]3O[C@H]1C[C@H](N)[C@H](O)[C@H](C)O1 [DOXORUBICIN] | – | Not Active | Not Active | Not Active | Not Active | Not Active | Not Active | – | 5.60
COc1cccc2c1C(=O)c1c(O)c3c(c(O)c1C2=O)C[C@@](O)(C(=O)CO)C[C@@H]3O[C@H]1C[C@H](N)[C@@H](O)[C@H](C)O1 [EPIRUBICIN] | Not Active | Not Active | Not Active | Not Active | Not Active | Not Active | Not Active | – | –
C[C@]12CC[C@@H]3c4ccc(OC(=O)c5ccccc5)cc4CC[C@H]3[C@@H]1CC[C@@H]2O [ESTRADIOL BENZOATE] | Not Active | Not Active | Not Active | Not Active | Not Active | Not Active | Not Active | – | –
